Measurements: patent US9156874B2, “Double-liver-targeting phosphoramidate and phosphonoamidate prodrugs” (Nanjing Molecular Research, Inc., priority 2011, dated 2015)

Key:
[1] = Pharmacokinetic (PK) study in rats, plasma and liver levels by LC/MS-MS; format: in vivo, SD rats; conditions: for oral bioavailability: rats
Protocol: Pharmacokinetic (PK) study of ester prodrug (FDURPAE), parent drug (FDUR) and prodrug in sodium salt form (FDURPAN) in rats were completed according to following procedure.
SD rats (250-300 g, male, N=24) were used for FDURPAE, FDUR and FDURPAN, purchased from SLAC Laboratory Animal Co. LTD Qualification No.: SCXK SH 2007-0005, 13264. FDURPAE (0.096 mmol, 52.17 mg/kg) and FDUR (0.096 mmol, 23.7 mg/kg) were dosed orally by gavage with a single dose of each compound to rats in a volume of 5 mL/kg in 0.5% carboxymethylcellulose sodium. FDURPAN (0.096 mmol, 50.24 mg) was dosed both orally or iv by gavage with a single dose to rats in a volume of 5 mL/kg in water. The animal was restrained manually at designated time points. Approximately 500 μL of blood/time point was collected into K2EDTA tube via cardiac puncture for terminal bleeding under anesthesia with Isoflurane. Blood samples were put on ice after collection and then centrifuged to obtain plasma sample (2000 g, 5 min, 4° C.) within 15 minutes of sampling. […] All the plasma samples were immediately quenched for protein precipitation. Liver samples were removed at designated time points by first sacrificing the animal by CO2 inhalation, then perfusing the liver with ice cold saline and removing the left middle liver lobe, which was then snap frozen in dry ice. Liver samples were stored at approximately −80° C. until analysis. The liver homogenate was then processed for further analysis by LC/MS-MS. Plasma and liver samples were stored at approximately −80° C. until analysis.
Concentrations of parent drug and possible metabolites in both plasma and liver including FDURPAN (stable metabolite of FDURPAE), FDUR, 5FU and FDUR-MP were determined by LC/MS-MS, respectively.

[2] = test system: HCV subgenomic replicon; assay: HCV replicon assay (Huh-7, luciferase reporter); format: cell-based
Protocol: Anti-Hepatitis C Activity. Anti-HCV activity and cytotoxicity of compounds disclosed herein were assayed following the method described in WO 2007/027248.
The anti-HCV activity and toxicity of the exemplary compounds can be tested in two biological assays—a cell-based HCV replicon assay and cytotoxicity assay (WO 2007/027248).
A human hepatoma cell line (Huh-7) containing replicating HCV subgenomic replicon with a luciferase reporter gene (luc-ubi-neo) was used to evaluate anti-HCV activity of the compounds. In this assay, level of luciferase signal correlates with the viral RNA replication directly. The HCV replicon-reporter cell line (NK/luc-ubi-neo) was cultured in DMEM medium supplemented with 10% fetal bovine serum and 0.5 mg/ml Geneticin (G418). Cells were maintained in a subconfluent state to ensure high levels of HCV replicon RNA synthesis.
To evaluate the antiviral activity of compounds, serial dilutions were prepared with concentrations ranging from 0.14 to 300 μM. Diluted compounds were transferred to a 96-well plate followed by the addition of replicon cells (6000 cells per well). Cells were incubated with the compounds for 48 h after which luciferase activity was measured. Reduction of luciferase signal reflected the decrease of HCV replicon RNA in the treated cells and used to determine the EC50 value (concentration which yielded a 50% reduction in luciferase activity).

detection of active drug FDUR-MP in plasma ([1]; rat, oral administration)	detection of metabolite 5FU in plasma ([1]; rat, oral administration)	Structure (SMILES)	oral bioavailability [1]	anti-HCV activity [2]
could not be detected	could not be detected	Cc1ccccc1CO[P@](=O)(N[C@H](C)C(=O)OC(C)C)OCC1OC(n2cc(F)c(=O)[nH]c2=O)CC1O (single isomer, unassigned) [FDURPAE (F5)]	significantly improved oral bioavailability	
		Cc1ccccc1COP(=O)(NCc1ccccc1)OCC1OC(n2ccc(=O)[nH]c2=O)C(C)(F)C1O (stereo not drawn) [F3]		potent anti-HCV activity
		CC1(F)C(O)C(COP(=O)(NCc2ccccc2)OCc2ccccc2)OC1n1ccc(=O)[nH]c1=O (stereo not drawn) [F2]		did not show any anti-HCV activity
		Cc1ccccc1COP(=O)(NCc1ccccc1)OCC1OC(n2cc(F)c(=O)[nH]c2=O)CC1O (stereo not drawn) [F4]	very low	
